Results on 2 compounds are retold here after patent publication US12054762B2, “Methods of protein production using anti-senescence compounds” (WYETH LLC, priority 2007, dated 2024).

Each structure is given as a SMILES string. Like-named read-outs stand apart in the source and are kept apart here.

Data set [1] concerns human or rodent transformed and neoplastic cells. As to conditions: cited from earlier work.
Data set [2] relates to MYO-29 cell line. Kind of data set: Dish scale carnosine experiments, MYO-29 cell line culture. The format is cell-based. The note with it: 10 mM carnosine added to dishes on day 4, 7 or 10; harvested day 12; vs no carnosine. As for the experimental part: A MYO-29 cell line was cultured in a serum free production medium in a bioreactor with a 1 L working volume and was temperature shifted from 37° C. to 31° C. on day 4. The pH of the bioreactor was held at 7.00 and the dissolved oxygen was at 30% air saturation. Cell culture medium was then taken from the bioreactor on day 4, day 7, and day 10 and put into culture dishes with an 8 ml working volume and placed into a 31° C. incubator, where the dish cultures were cultured until day 12. The cells were supplemented with a feed medium on days 5 and 7. On day 5, 10% (v/v) of feed medium was added to the cell cultures and on day 7, 5% (v/v) of feed medium was added to the cell cultures. 10 mM of carnosine was added on day 4, day 7, and day 10, respectively, to the dishes and the cell culture medium was harvested on day 12.

The subject of data set [3] is MYO-29 cell line. Kind of data set: Different concentrations of carnosine in 1 L bioreactor culture, MYO-29 cell line. The format is cell-based. As to the method: Four bioreactors were inoculated with 0.4×10^6 cells/ml with a 1 L working volume of a MYO-29 cell line in a serum free inoculation medium. All the bioreactors were all fed 5% (v/v) of a feed medium on day 7 of the 14-day run. The conditions of the bioreactor were held at a temperature of 37° C., a pH of 7.00, and a dissolved oxygen level at 30% air saturation.
All cells were cultured for four days at which point the temperature was shifted in all of the bioreactors to 31° C. […] All bioreactors were harvested on day 12 of the production run. Samples were taken throughout the run to monitor the progress of the cell culture medium. The controls performed generally as expected, except one control had slightly lower daily viabilities than previously seen.

Data set [4] relates to human diploid fibroblasts and human fetal lung (primary cell lines). The note with it: 20 mM in culture media; cited from earlier work.
For data set [5], the system named is Chinese Hamster Ovary (CHO) Cell Line Producing Recombinant TNFR Fusion Protein. Kind of data set: Carnosine in 1 L bioreactor culture of cells producing recombinant TNFR fusion protein. The format is cell-based. As to conditions: 20 mM carnosine added day 2. As for the experimental part: A TNFR fusion protein cell line was cultured in a serum free production medium in a bioreactor with a 1 L working volume. On day 1, the temperature was shifted from 37° C. to 29.5° C., sodium butyrate was added to a final concentration of 1 mM, and HMBA was added to a final concentration of 3 mM. The pH of the bioreactor was held at 6.95 and the dissolved oxygen was at 60% air saturation. On day 2, carnosine was added to the culture to a final concentration of 20 mM. The cells were supplemented with a 5% (v/v) feed medium on days 3, 6, 8, and 10. The cell culture medium was harvested on day 12. Four separate control bioreactors were run in which CHO cells expressing a recombinant TNFR fusion protein were grown under conditions identical to those described above, except that carnosine was not added on day 2. The control data in FIGS. 4-11 is the average of the four control bioreactor runs.

In data set [6] the test system is MYO-29 cell line. Kind of data set: Carnosine addition to 1 L bioreactor fed-batch culture, MYO-29 cell line. As to conditions: 20 mM carnosine added day 4. The format is cell-based. As for the experimental part:
Five bioreactors were inoculated with 0.9×10^6 cells/ml with a 1 L working volume of a MYO-29 cell line in a serum free inoculation medium. All the bioreactors were fed 5% (v/v) of a feed medium on days 3, 5, 7, and 12 of a 14-day run. A day 10 feed of 5% (v/v) of the feed medium was added to two of the control bioreactors and one containing carnosine. The conditions of the bioreactors were held at a temperature of 37° C., a pH of 7.00, and a dissolved oxygen level at 30% air saturation.
The bioreactors were harvested on day 14 of the production run. Samples were taken throughout the run to monitor the progress of the cell culture medium. The controls performed as expected.

For data set [7] the following is noted: addition of the chemical agent to cell culture; cited from earlier work.
Setting [8] is: vs average of 4 control bioreactors.

Turning to `NCCC(=O)N[C@@H](Cc1cnc[nH]1)C(=O)O` [carnosine], the cytotoxicity result in data set [1] (Dulbecco's Modified Eagle's Medium (DMEM), contains 1 mM pyruvate) is “not”. Moreover, the cytotoxicity entry in data set [1] (Minimal Essential Medium (MEM), lower glucose levels) is listed as “cytotoxic”. For the same compound, in the data set with MYO-29 cell line [2], the acidic peaks entry is listed as “decreasing” and the “high molecular weight aggregates” value was “decreasing”. The “high molecular weight aggregates” value with MYO-29 cell line [3] (20 mM or 40 mM carnosine added day 4, compared to the controls) is given as “decrease”. Further, the daily titer entry in the data set on MYO-29 cell line [3] (20 mM or 40 mM carnosine added day 4, compared with one of the controls) is on record as “similar”. Further, the “daily cell viability upon being harvested” value with MYO-29 cell line [3] (20 mM or 40 mM carnosine added day 4, harvest day 12, compared to two control bioreactors) was “higher viability”. Moreover, the “daily viable cell density” value with MYO-29 cell line [3] (20 mM or 40 mM carnosine added day 4, vs controls) is reported as “fairly similar with the exception of the bioreactor with 4 mM of carnosine”. Further, in the data set on MYO-29 cell line [3] (40 mM carnosine added day 4), the “cumulative specific cellular productivity” value was “higher”. The lifespan of cells result in data set [4] is given as “extend the lifespan”. Further, the “amount of misfolded and/or aggregated TNFR fusion protein” value in data set [5] (hydrophobic interaction chromatography (HIC), vs controls) is reported as “significantly reduced”. For the same compound, the “amount of high molecular weight (HMW) aggregates” value in data set [5] (size exclusion chromatography (SEC), vs controls) was “significantly reduced”. In data set [5] (setting [8]), the “cell growth (viable cell density)” value was “not significantly affected” and the cell viability entry is listed as “not significantly affected”. In data set [5] (vs controls), the “glycosylation of the produced TNFR fusion protein (total sialylation, sialylated N-linked oligosaccharides)” value is on record as “not significantly different”; the product titer entry is recorded as “increased”; the specific cellular productivity entry is recorded as “increased”. Also, the “daily cell viability upon being harvested” value in the data set on MYO-29 cell line [6] (harvest day 14, compared to bioreactors without carnosine) was “higher”. Moreover, the “titer at the time of harvest” value in the data set on MYO-29 cell line [6] (harvest day 14, vs controls) is “higher titer”. In addition, in the data set on MYO-29 cell line [6] (vs controls), the “cumulative specific cellular productivity” value is given as “better” and the “high molecular weight aggregates” value is “decrease”.

Turning to `CCCC(=O)[O-].[Na+]` [sodium butyrate], the “cell growth and viable cell number” value in data set [7] was “cell growth ceases and the viable cell number decreases”.
